# In PubChem BioAssay AID743296 (The Scripps Research Institute Molecular Screening Center, 2014):
# Active and inactive are the calls of the source. How the calls were made is not given here.
# Target: CCHFV viral ovarian tumor domain protease (vOTU, L protein)
# Test: CCHFV vOTU protease inhibitor potency, dose response, biochemical, fluorescence, Pep-AMC substrate (AID 743296)
# Conditions: recombinant CCHFV vOTU
row,SMILES,IC50
1,CC1CCCC(NC(=O)COC(=O)c2ccc([N+](=O)[O-])s2)C1C (configuration not stated),9.29 µM
2,CCc1cc[n+](C2=C(NS(=O)(=O)c3cccs3)C(=O)c3ccccc3C2=O)cc1,3.5 µM
3,CCC(CNc1cc(OC)cc2cccnc12)NC1CCCCC1 (configuration not stated),5.86 µM
4,O=C(/C=C/c1ccc(O)cc1)c1ccc(NC2=C(N3CCCCC3)C(=O)c3ccccc3C2=O)cc1,4.19 µM
5,O=C(OCc1nnc(-c2ccccc2)o1)c1ccc([N+](=O)[O-])s1,6.91 µM
6,COc1cc(NC(=O)COC(=O)c2ccc([N+](=O)[O-])s2)cc(OC)c1OC,8.38 µM
7,NC1=C(Cl)C(=O)c2ccc(S(N)(=O)=O)cc2C1=O,0.122 µM
8,O=S(=O)(Nc1cc(Sc2ncn[nH]2)c(O)c2ccccc12)c1ccccc1,0.458 µM
9,COc1cc(NCCCCCCN)c2ncccc2c1OC,inactive
10,O=C(COC(=O)c1ccc([N+](=O)[O-])s1)Nc1ccc(F)cc1,7.27 µM
11,CC(=O)c1ccc(NC(=S)Nc2cccc3cnccc23)cc1,> 115 µM (inactive)
12,CCOC(=O)c1c2c(n(Cc3ccccc3)c1C)C(=O)C(=O)c1ccccc1-2,2.12 µM
13,CN(C1=C(NC(=O)c2ccccc2)C(=O)c2ccccc2C1=O)C1CCS(=O)(=O)C1 (configuration not stated),2.67 µM
14,Cc1cnc(C2OCCO2)c2cccc(N)c12,inactive
15,O=C(O)CSc1cc(NS(=O)(=O)c2ccc(Br)cc2)c2ccccc2c1O,1.66 µM
16,Cc1ccccc1-c1cc2c(nn1)-c1ccccc1C2=O,0.545 µM
17,Cn1nc(-c2ccccn2)nc2c(=O)n(C)c(=O)nc1-2,0.251 µM
18,COc1cc(NCCCC(C)N)c2ncccc2c1 (configuration not stated),> 115 µM (inactive)
19,O=C(c1ccco1)[C@@H]1[C@@H]2C(=O)N(c3ccc(Br)cc3)C(=O)[C@@H]2C2c3ccccc3C=CN21 (some centres not stated),5.18 µM
20,Nc1cc2c(cc1Br)[nH]c(=O)c1ccccc12,inactive
21,Cc1ccc(NC2=CC(=O)C(=O)c3ccccc32)cc1,5.14 µM
22,O=C(COC(=O)c1ccc([N+](=O)[O-])s1)NCc1ccc(F)cc1,9.46 µM
23,O=C1Cc2ccccc2C(=O)N1CCc1ccccc1,0.901 µM
24,O=C(COC(=O)c1ccc([N+](=O)[O-])s1)Nc1ncc(C(F)(F)F)cc1Cl,inactive
25,O=C1OC(Nc2cc(Br)cc3cccnc23)c2ccccc21 (configuration not stated),> 115 µM (inactive)
26,COc1ccc2noc3c2c1C(=O)c1ccccc1-3,8.11 µM

row,SMILES,IC50
1,CC(C)=CCC1=C(OCC(=O)O)C(=O)c2ccccc2C1=O,3.23 µM
2,CCOC(=O)N=Nc1c2ccccc2c2nc3no[nH]c3nc12,2.54 µM
3,O=C(O)CSc1cc(NS(=O)(=O)c2ccc(Cl)cc2)c2ccccc2c1O,3.4 µM
4,Cc1ccc2c(c1C)-c1c(ccc(C)c1C)C(=O)C2=O,7.46 µM
5,CCOC(=O)C1=C(COC(=O)c2ccc([N+](=O)[O-])s2)NC(=O)NC1C (configuration not stated),7.97 µM
6,CC1COCC(C)N1C1=C(Cl)C(=O)c2ccccc2C1=O (configuration not stated),7.43 µM
7,CC1(C)C=C2C(=NN(c3ccccc3)C(N)=C2C#N)CO1,1.54 µM
8,O=C1Cc2ccccc2C(=O)N1,0.419 µM
9,S=C(Nc1ccc(Cl)cc1)Nc1cccc2cnccc12,inactive
10,Cc1ccc(N2C(=O)[C@@H]3[C@H](C2=O)C2c4ccccc4C=CN2[C@@H]3C(=O)c2ccco2)cc1 (some centres not stated),6.53 µM
11,O=C1C=C(Nc2ccccc2)c2ccccc2C1=O,6.64 µM
12,O=S(=O)(Nc1cc2nc3ccccc3nc2n1Cc1ccccc1)c1ccc(Cl)cc1,4.14 µM
13,COC1=C(N)C(=O)c2nc(C)ccc2C1=O,0.824 µM
14,O=C(COC(=O)c1ccc([N+](=O)[O-])s1)Nc1ccccc1,8.21 µM
15,NS(=O)(=O)c1ccc(NC(=O)COC(=O)c2ccc([N+](=O)[O-])s2)cc1,8.1 µM
16,O=C(NC1=CC(=O)c2ccccc2C1=O)c1ccccc1,4.64 µM
17,COc1cc(Br)c(C(=O)c2nccc3cc(OC)c(OC)cc23)cc1OC,0.276 µM
18,NS(=O)(=O)c1ccc(NC2=CC(=O)C(=O)c3ccccc32)cc1,4.22 µM
19,COC(CNC(=O)c1ccc2c3c(onc13)-c1ccccc1C2=O)OC,7.11 µM
20,COc1ccccc1NC(=O)COC(=O)c1ccc([N+](=O)[O-])s1,7.82 µM
21,O=C1Cc2ccccc2C(=O)N1Cc1ccccc1,1.19 µM
22,O=C(NC1=C(NC2CCS(=O)(=O)C2)C(=O)c2ccccc2C1=O)c1ccccc1 (configuration not stated),2.79 µM
23,Cc1c(Cl)cnc(NC(=O)COC(=O)c2ccc([N+](=O)[O-])s2)c1Cl,inactive
24,COc1cc2c(cc1O)[C@@H]1Cc3ccc(OC)c(O)c3CN1CC2,inactive
25,COc1cc(C(=O)c2nccc3cc(OC)c(OC)cc23)c([N+](=O)[O-])cc1OC,1.42 µM
26,O=C(O)CSc1cc(NS(=O)(=O)c2cccc([N+](=O)[O-])c2)c2ccccc2c1O,1.95 µM
